According to US10106556B2, “Heterocyclic compound” (TAKEDA PHARMACEUTICAL COMPANY LIMITED, priority 2015, dated 2018):

Target: T1, His-hMAGL (recombinant polyhistidine tagged human MAGL protein) (Homo sapiens, UniProt Q99685)
T1 construct: made in house; host or cells: E. coli BL21(DE3)
T1 sequence (Q99685 1-303): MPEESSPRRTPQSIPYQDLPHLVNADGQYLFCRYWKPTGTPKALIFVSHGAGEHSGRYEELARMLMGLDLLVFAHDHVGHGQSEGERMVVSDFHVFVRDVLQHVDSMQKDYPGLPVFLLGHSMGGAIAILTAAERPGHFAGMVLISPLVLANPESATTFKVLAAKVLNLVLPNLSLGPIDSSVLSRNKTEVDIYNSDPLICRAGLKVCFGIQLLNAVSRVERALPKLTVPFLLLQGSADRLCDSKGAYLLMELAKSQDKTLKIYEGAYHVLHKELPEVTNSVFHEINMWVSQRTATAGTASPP
Experiment: Measurement of MAGL inhibitory activity (arachidonic acid production from 2-arachidonylglycerol, RapidFire-mass spectrometry)
Format: biochemical
Conditions: MAGL inhibitory rate at 10 μM test compound, 60 min preincubation with His-hMAGL, 2-arachidonylglycerol substrate, 10 min reaction at room temperature
In short: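 Recombinant His-tagged human MAGL converted 2-arachidonylglycerol to arachidonic acid. Reactions received acetonitrile with 3 μM arachidonic acid-d8 as internal standard, and product was quantified by RapidFire SPE (C4) with negative-mode SRM mass spectrometry. Percent inhibition was calculated against compound-free and enzyme-free controls.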

SMILES	inhibition at 10 µM	% inhibition (10 μM) (10 µM)
O=C1COc2ncc(C(=O)N3CCC(COc4ccccc4Cl)CC3)cc2N1 [Example 7, 7-((4-((2-chlorophenoxy)methyl)piperidin-1-yl)carbonyl)-1H-pyrido[2,3-b][1,4]oxazin-2(3H)-one]	100%	–
O=C1COc2ccc(C(=O)N3CCC(COc4ccc(Cl)c(F)c4)CC3)cc2N1 [Example 42, 6-((4-((4-chloro-3-fluorophenoxy)methyl)piperidin-1-yl)carbonyl)-2H-1,4-benzoxazin-3(4H)-one]	99%	–
Cc1ccncc1-c1cc(Cl)ccc1OCC1CN(C(=O)c2cc3c(cc2F)OCC(=O)N3)C1 [Example 203, 6-((3-((4-chloro-2-(4-methylpyridin-3-yl)phenoxy)methyl)azetidin-1-yl)carbonyl)-7-fluoro-2H-1,4-benzoxazin-3(4H)-one]	103%	–
O=C1COc2cc(F)c(C(=O)N3CC(COc4ccc(Br)cc4)C3)cc2N1 [Example 182, 6-((3-((4-bromophenoxy)methyl)azetidin-1-yl)carbonyl)-7-fluoro-2H-1,4-benzoxazin-3(4H)-one]	98%	–
O=C1COc2cc(F)c(C(=O)N3CC(COc4cccc(Cl)c4)C3)cc2N1 [Example 112, 6-((3-((3-chlorophenoxy)methyl)azetidin-1-yl)carbonyl)-7-fluoro-2H-1,4-benzoxazin-3(4H)-one]	101%	–
Cc1c(-c2ccc(OCC3CN(C(=O)c4cc5c(cc4F)OCC(=O)N5)C3)c(F)c2)cnn1C [Example 250, 6-((3-((4-(1,5-dimethyl-1H-pyrazol-4-yl)-2-fluorophenoxy)methyl)azetidin-1-yl)carbonyl)-7-fluoro-2H-1,4-benzoxazin-3(4H)-one]	101%	–
O=C1COc2cc(F)c(C(=O)N3CCC(COc4ccc(Cl)nc4Cl)CC3)cc2N1 [Example 71, 6-((4-(((2,6-dichloropyridin-3-yl)oxy)methyl)piperidin-1-yl)carbonyl)-7-fluoro-2H-1,4-benzoxazin-3(4H)-one]	100%	–
CC(Oc1cc(F)cc(F)c1)C1CN(C(=O)c2cc3c(cc2F)OCC(=O)N3)C1 (centres unmarked) [Example 305, 6-((3-(1-(3,5-difluorophenoxy)ethyl)azetidin-1-yl)carbonyl)-7-fluoro-2H-1,4-benzoxazin-3(4H)-one]	100%	–
O=C1COc2cc(F)c(C(=O)N3CCC(O)(COc4ccc(Cl)cc4Cl)CC3)cc2N1 [Example 74, 6-((4-((2,4-dichlorophenoxy)methyl)-4-hydroxypiperidin-1-yl)carbonyl)-7-fluoro-2H-1,4-benzoxazin-3(4H)-one]	102%	–
O=C1COc2cc(F)c(C(=O)N3CC(COc4ccc(Cl)cc4-c4ccc(C(F)(F)F)nc4)C3)cc2N1 [Example 220, 6-((3-((4-chloro-2-(6-(trifluoromethyl)pyridin-3-yl)phenoxy)methyl)azetidin-1-yl)carbonyl)-7-fluoro-2H-1,4-benzoxazin-3(4H)-one]	102%	–
O=C1COc2cc(F)c(C(=O)N3CC(COc4ccc(-c5ccccn5)cc4F)C3)cc2N1 [Example 227, 7-fluoro-6-((3-((2-fluoro-4-(pyridin-2-yl)phenoxy)methyl)azetidin-1-yl)carbonyl)-2H-1,4-benzoxazin-3(4H)-one]	97%	–
O=C1COc2cc(F)c(C(=O)N3CC(COc4ccc(Cl)cc4-c4ccncc4Cl)C3)cc2N1 [Example 210, 6-((3-((4-chloro-2-(3-chloropyridin-4-yl)phenoxy)methyl)azetidin-1-yl)carbonyl)-7-fluoro-2H-1,4-benzoxazin-3(4H)-one]	101%	–
O=C1COc2cc(F)c(C(=O)N3CC(COc4ccc(-c5cncc(F)c5)cc4F)C3)cc2N1 [Example 234, 7-fluoro-6-((3-((2-fluoro-4-(5-fluoropyridin-3-yl)phenoxy)methyl)azetidin-1-yl)carbonyl)-2H-1,4-benzoxazin-3(4H)-one]	97%	–
O=C1COc2cc(F)c(C(=O)N3CC(COc4c(Cl)cccc4Cl)C3)cc2N1 [Example 122, 6-((3-((2,6-dichlorophenoxy)methyl)azetidin-1-yl)carbonyl)-7-fluoro-2H-1,4-benzoxazin-3(4H)-one]	102%	–
O=C1COc2cc(F)c(C(=O)N3CCC(COc4cccn5nccc45)CC3)cc2N1 [Example 274, 7-fluoro-6-((4-((pyrazolo[1,5-a]pyridin-4-yloxy)methyl)piperidin-1-yl)carbonyl)-2H-1,4-benzoxazin-3(4H)-one]	102%	–
Cc1cc(-c2cc(Cl)ccc2OCC2CN(C(=O)c3cc4c(cc3F)OCC(=O)N4)C2)n(C)n1 [Example 223, 6-((3-((4-chloro-2-(1,3-dimethyl-1H-pyrazol-5-yl)phenoxy)methyl)azetidin-1-yl)carbonyl)-7-fluoro-2H-1,4-benzoxazin-3(4H)-one]	102%	–

SMILES	inhibition at 10 µM	% inhibition (10 μM) (10 µM)
CN1CC=C(c2cc(Cl)ccc2OCC2CN(C(=O)c3cc4c(cc3F)OCC(=O)N4)C2)CC1 [Example 212, 6-((3-((4-chloro-2-(1-methyl-1,2,3,6-tetrahydropyridin-4-yl)phenoxy)methyl)azetidin-1-yl)carbonyl)-7-fluoro-2H-1,4-benzoxazin-3(4H)-one]	94%	–
O=C1COc2cc(F)c(C(=O)N3CC(OCc4ccccc4OC(F)F)C3)cc2N1 [Example 341]	101%	–
CC(C)(C)c1ccc(OCC2CN(C(=O)c3cc4c(cc3F)OCC(=O)N4)C2)c(Cl)c1 [Example 118, 6-((3-((4-tert-butyl-2-chlorophenoxy)methyl)azetidin-1-yl)carbonyl)-7-fluoro-2H-1,4-benzoxazin-3(4H)-one]	99%	–
CCc1ncccc1-c1cc(Cl)ccc1OCC1CN(C(=O)c2cc3c(cc2F)OCC(=O)N3)C1 [Example 199, 6-((3-((4-chloro-2-(2-ethylpyridin-3-yl)phenoxy)methyl)azetidin-1-yl)carbonyl)-7-fluoro-2H-1,4-benzoxazin-3(4H)-one]	103%	–
O=C1COc2cc(F)c(C(=O)N3CC(COc4ccc(-c5ccncc5)cc4F)C3)cc2N1 [Example 239, 7-fluoro-6-((3-((2-fluoro-4-(pyridin-4-yl)phenoxy)methyl)azetidin-1-yl)carbonyl)-2H-1,4-benzoxazin-3(4H)-one]	100%	–
O=C1COc2cc(F)c(C(=O)N3CC(OCc4ccc(-n5cccn5)cc4)C3)cc2N1 [Example 338, 7-fluoro-6-((3-((4-(1H-pyrazol-1-yl)benzyl)oxy)azetidin-1-yl)carbonyl)-2H-1,4-benzoxazin-3(4H)-one]	101%	–
O=C1COc2cc(F)c(C(=O)N3CC(COc4ccc(OC(F)(F)F)cc4)C3)cc2N1 [Example 143, 7-fluoro-6-((3-((4-(trifluoromethoxy)phenoxy)methyl)azetidin-1-yl)carbonyl)-2H-1,4-benzoxazin-3(4H)-one]	100%	–
O=C1COc2cc(F)c(C(=O)N3CC(COc4ccc(Cl)cc4-c4ccncc4)C3)cc2N1 [Example 206, 6-((3-((4-chloro-2-(pyridin-4-yl)phenoxy)methyl)azetidin-1-yl)carbonyl)-7-fluoro-2H-1,4-benzoxazin-3(4H)-one]	104%	–
N#Cc1ccc(OCC2CN(C(=O)c3cc4c(cc3F)OCC(=O)N4)C2)c(Cl)c1 [Example 92, 3-chloro-4-((1-((7-fluoro-3-oxo-3,4-dihydro-2H-1,4-benzoxazin-6-yl)carbonyl)azetidin-3-yl)methoxy)benzonitrile]	99%	–
Cn1cc(-c2ccc(OCC3CN(C(=O)c4cc5c(cc4F)OCC(=O)N5)C3)c(F)c2)cn1 [Example 246, 7-fluoro-6-((3-((2-fluoro-4-(1-methyl-1H-pyrazol-4-yl)phenoxy)methyl)azetidin-1-yl)carbonyl)-2H-1,4-benzoxazin-3(4H)-one]	96%	–
O=C1COc2ccc(C(=O)N3CCC(COc4ccc(OC(F)(F)F)cc4)CC3)cc2N1 [Example 55, 6-((4-((4-(trifluoromethoxy)phenoxy)methyl)piperidin-1-yl)carbonyl)-2H-1,4-benzoxazin-3(4H)-one]	96%	–
O=C1COc2c(F)cc(C(=O)N3CCC(COc4ccc(F)cc4Cl)CC3)cc2N1 [Example 32, 6-((4-((2-chloro-4-fluorophenoxy)methyl)piperidin-1-yl)carbonyl)-8-fluoro-2H-1,4-benzoxazin-3(4H)-one]	99%	–
CC(Oc1cc(F)ccc1F)C1CN(C(=O)c2cc3c(cc2F)OCC(=O)N3)C1 (centres unmarked) [Example 319, 6-((3-(1-(2,5-difluorophenoxy)ethyl)azetidin-1-yl)carbonyl)-7-fluoro-2H-1,4-benzoxazin-3(4H)-one]	–	101%
COC(=O)c1cc(F)ccc1OCC1CCN(C(=O)c2cc3c(cc2F)OCC(=O)N3)CC1 [Example 85, methyl 5-fluoro-2-((1-((7-fluoro-3-oxo-3,4-dihydro-2H-1,4-benzoxazin-6-yl)carbonyl)piperidin-4-yl)methoxy)benzoate]	102%	–
Cc1ccccc1OCC1CCN(C(=O)c2ccc3c(c2)NC(=O)CO3)CC1 [Example 34, 6-((4-((2-methylphenoxy)methyl)piperidin-1-yl)carbonyl)-2H-1,4-benzoxazin-3(4H)-one]	98%	–
O=C1COc2cc(F)c(C(=O)N3CC(OCc4ccc(F)cc4Cl)C3)cc2N1 [Example 322, 6-((3-((2-chloro-4-fluorobenzyl)oxy)azetidin-1-yl)carbonyl)-7-fluoro-2H-1,4-benzoxazin-3(4H)-one]	101%	–
